pIC50: −log10 of the molar value.
Columns and labels:
[1] = target: T1, p38α (Homo sapiens, UniProt Q16539); assay: In vitro enzyme assay, p38α; assay type: biochemical; conditions: read-out: IC50 against p38α
T1 construct: c-myc (N); 6His (N); made in house; host or cells: E. coli (PET vectors)
Procedure: The ability of compounds of the invention to inhibit the enzyme p38 kinase was assessed. Activity of test compounds against each of the p38α and p38β isoforms of the enzyme was determined. […]
Test compounds were solubilised in DMSO and 10 μl of a 1:10 diluted sample in ‘Kinase Buffer’ was added to a well in a Microtiter plate. […] The precipitated protein was phosphorylated by p38 kinase and test compounds were assessed for their ability to inhibit this phosphorylation. The plates were filtered using a Canberra Packard Unifilter and washed with 2% TCA, dried overnight and counted on a Top Count scintillation counter.
Test compounds were tested initially at a single dose and active compounds were retested to allow IC50 values to be determined.

[2] = tested on: TNFα production in human whole blood; assay: Human Whole Blood test: inhibition of LPS-stimulated TNFα production; assay type: cell-based
Procedure: The ability of the compounds of this invention to inhibit TNFα production was also assessed in a human whole blood assay. Human whole blood secretes TNFα when stimulated with LPS. This property of blood forms the basis of an assay which is used as a secondary test for compounds which profile as active in the PBMC test.
Heparinised (10 units/ml) human blood was obtained from volunteers. 160 μl whole blood were added to 96 well round-bottom plates (Corning 25850). Compounds were solubilised and serially diluted in RPMI 1640 medium (Gibco) supplemented with 50 units/ml penicillin, 50 μg/ml streptomycin and 2 mM glutamine, as detailed above. 20 μl of each test concentration was added to appropriate wells (triplicate cultures). 20 μl of RPMI 1640 medium supplemented with antibiotics and glutamine was added to control wells. Plates were incubated for 30 minutes at 37° C. (humidified incubator), prior to addition of 20 μl LPS (final concentration 10 μg/ml). RPMI 1640 medium was added to control wells. Six “LPS alone” and four “medium alone” controls were included on each plate. A known TNFα synthesis/secretion inhibitor was included in each test. Plates were incubated for 6 hours at 37° C. (humidified incubator). […] TNFα levels were measured by ELISA (see WO92/10190 and Current Protocols in Molecular Biology, vol 2 by Frederick M. Ausbel et al., John Wiley and Sons Inc.). […]

T1 sequence (Q16539 whole entry): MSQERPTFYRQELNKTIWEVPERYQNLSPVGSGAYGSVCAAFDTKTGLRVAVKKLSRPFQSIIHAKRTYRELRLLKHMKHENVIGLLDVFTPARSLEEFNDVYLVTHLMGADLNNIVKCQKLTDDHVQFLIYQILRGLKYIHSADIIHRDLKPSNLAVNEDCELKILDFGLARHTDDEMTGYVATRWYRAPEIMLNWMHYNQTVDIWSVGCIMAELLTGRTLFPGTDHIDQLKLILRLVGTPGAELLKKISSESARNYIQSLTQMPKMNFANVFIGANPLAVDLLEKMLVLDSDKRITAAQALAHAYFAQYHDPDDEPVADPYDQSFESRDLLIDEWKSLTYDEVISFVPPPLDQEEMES

pIC50 [1]: ~7.52
pIC50 [2]: ~4.80
SMILES: Cc1ccc(NC(=O)c2cc(F)cc(N3CCOCC3)c2)cc1Nc1cc(C(N)=O)nc(Cl)n1 [6-Carbamoyl-2-chloro-4-[5-(3-fluoro-5-morpholinobenzamido)-2-methylanilino]-pyrimidine]
